# Results published in patent publication USRE47689E1, “Compounds for treating spinal muscular atrophy” (PTC Therapeutics, Inc., priority 2011, dated 2019).
# Read-outs that look alike come from different tables or passages of the source.
# Legend:
# [1] = system: SMN2 minigene (full length SMN2 minigene mRNA containing SMN2 exon 7); assay: SMN2 minigene mRNA splicing RT-qPCR assay in cultured cells; format: cell-based, human; conditions: Homo sapiens, HEK293-H, read-out: EC1.5x for production of full length SMN2 mRNA
# Summary of the method: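 Lysates → one-step RT-qPCR, minigene-specific primers (0.4 μM final) + GAPDH multiplex, 40 cycles. FL/GAPDH vs DMSO; EC1.5x, star-binned.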
# Smn protein = Smn protein assay in cultured cells (SMN HTRF); format: cell-based, human; conditions: 48 hours; for EC1.5x (concentration giving 1.5-fold Smn protein increase): SMA Type 1 patient fibroblast cells (GM03813), 7-point concentration curve, SMN HTRF, concentration producing 1.5 times Smn protein vs DMSO vehicle control, read-out: EC1.5x for Smn protein expression; for maximum fold (Fold) increase of Smn protein: SMA patient fibroblast cells, 7-point concentration data, fold increase relative to vehicle control (SMN HTRF)
# Summary of the method: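 Smn in SMA fibroblast lysates, measured by anti-SMN HTRF after 48 h compound exposure; EC1.5x from fold change over vehicle.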
# [2] = HEK293H cells stably transfected with SMN2-A minigene, 24 hours, 7-point concentration curve, 1.5-fold relative to vehicle-treated cells
melting point,SMILES,"EC (1.5-fold) [1, 2] [µM]",EC1.5x (concentration giving 1.5-fold Smn protein increase) (Smn protein) [nM],maximum fold (Fold) increase of Smn protein (Smn protein),EC (1.5-fold) ([1]; 24 h) [µM]
269 to 277 °C,"Cc1cc(F)c2nc(-c3cc4ccc(N5CCN(C)[C@H](C)C5)cc4oc3=O)cn2c1 [Compound 533, 7-[(3R)-3,4-dimethylpiperazin-1-yl]-3-(8-fluoro-6-methylimidazo[1,2-a]pyridin-2-yl)-2H-chromen-2-one]",< 0.1,< 300,**** (fold increase between >1.5 and ≤1.65),–
201 to 203 °C,"Cc1cn2cc(-c3cc4ccc(OCCN5CCCC5)cc4oc3=O)nc2c(C)n1 [Cpd 918, 3-(6,8-dimethylimidazo[1,2-a]pyrazin-2-yl)-7-[2-(pyrrolidin-1-yl)ethoxy]-2H-chromen-2-one]",< 0.1,300 to 1000,**** (fold increase between >1.5 and ≤1.65),–
225 to 227 °C,"CN1CCCN(c2ccc3cc(-c4cn5cnccc5n4)c(=O)oc3c2)CC1 [Compound 460, 3-(imidazo[1,2-c]pyrimidin-2-yl)-7-(4-methyl-1,4-diazepan-1-yl)-2H-chromen-2-one]",0.1 to 0.3,3000 to 10000,*** (fold increase between >1.35 and ≤1.5),–
211 to 220 °C,"O=c1oc2cc(N3C[C@@H]4C[C@H]3CN4)ccc2cc1-c1nc(C(F)(F)F)cs1 [Compound 266, 7-[(1S,4S)-2,5-diazabicyclo[2.2.1]hept-2-yl]-3-[4-(trifluoromethyl)-1,3-thiazol-2-yl]-2H-chromen-2-one]",1 to 3,–,* (maximum fold increase of ≤1.2),–
203 to 206 °C,"Cc1ccn2nc(-c3cc4ccc(N5CCCNCC5)cc4oc3=O)cc2c1 [Compound 309, 7-(1,4-diazepan-1-yl)-3-(5-methylpyrazolo[1,5-a]pyridin-2-yl)-2H-chromen-2-one]",0.3 to 1,–,** (fold increase between >1.2 and ≤1.35),–
202 to 207 °C,"Cc1cn2cc(-c3cc4ccc(OCCNC(C)C)cc4oc3=O)nc2c(C)n1 [Compound 877, 3-(6,8-dimethylimidazo[1,2-a]pyrazin-2-yl)-7-[2-(propan-2-ylamino)ethoxy]-2H-chromen-2-one]",< 0.1,300 to 1000,*** (fold increase between >1.35 and ≤1.5),–
201 to 205 °C,"O=c1oc2cc(CN3CCCCC3)ccc2cc1-c1nc2ccccc2s1 [Compound 59, 3-(1,3-benzothiazol-2-yl)-7-(piperidin-1-ylmethyl)-2H-chromen-2-one]",1 to 3,–,** (fold increase between >1.2 and ≤1.35),–
300 to 302 °C,"CCN1CCN(c2ccc3cc(-c4cn5cccnc5n4)c(=O)oc3c2)CC1 [Compound 108, 7-(4-ethylpiperazin-1-yl)-3-(imidazo[1,2-a]pyrimidin-2-yl)-2H-chromen-2-one]",1 to 3,300 to 1000,**** (fold increase between >1.5 and ≤1.65),–
268 to 271 °C,"CN1CCN(c2cc(F)c3cc(-c4cn5ccsc5n4)c(=O)oc3c2)CC1 [Compound 372, 5-fluoro-3-(imidazo[2,1-b][1,3]thiazol-6-yl)-7-(4-methylpiperazin-1-yl)-2H-chromen-2-one]",0.1 to 0.3,–,** (fold increase between >1.2 and ≤1.35),–
288 to 290 °C,"Cc1cn2cc(-c3cc4ccc(N5CCNCC5)cc4oc3=O)nc2cn1 [Compound 567, 3-(6-methylimidazo[1,2-a]pyrazin-2-yl)-7-(piperazin-1-yl)-2H-chromen-2-one]",< 0.1,< 300,***** (fold increase >1.65),–
270 to 272 °C,"Cc1cn2cc(-c3cc4ccc(N5CCN(C(C)(C)C)CC5)cc4oc3=O)nc2c(C)n1 [Compound 812, 7-(4-tert-butylpiperazin-1-yl)-3-(6,8-dimethylimidazo[1,2-a]pyrazin-2-yl)-2H-chromen-2-one]",< 0.1,–,*** (fold increase between >1.35 and ≤1.5),–
215 to 218 °C,"C[C@@H]1CN(c2ccc3cc(-c4cn5cccc(Cl)c5n4)c(=O)oc3c2)CCN1 [Compound 183, 3-(8-chloroimidazo[1,2-a]pyridin-2-yl)-7-[(3R)-3-methylpiperazin-1-yl]-2H-chromen-2-one]",0.3 to 1,–,** (fold increase between >1.2 and ≤1.35),–
223 to 230 °C,"Cc1cc(F)cn2cc(-c3cc4ccc(N5CCNCC5)cc4oc3=O)nc12 [Compound 328, 3-(6-fluoro-8-methylimidazo[1,2-a]pyridin-2-yl)-7-(piperazin-1-yl)-2H-chromen-2-one]",0.3 to 1,–,* (maximum fold increase of ≤1.2),–
187 to 190 °C,"Cc1cn2cc(-c3cc4ccc(N5CCN(CCCO)[C@@H](C)C5)cc4oc3=O)nc2c(C)n1 [Compound 907, 3-(6,8-dimethylimidazo[1,2-a]pyrazin-2-yl)-7-[(3S)-4-(3-hydroxypropyl)-3-methylpiperazin-1-yl]-2H-chromen-2-one]",< 0.1,< 300,**** (fold increase between >1.5 and ≤1.65),–
286 °C (dec.),"O=c1oc2cc(N3CCNCC3)ccc2cc1-c1cn2cccnc2n1 [Cpd 89, 3-(imidazo[1,2-a]pyrimidin-2-yl)-7-(piperazin-1-yl)-2H-chromen-2-one]",0.1 to 0.3,300 to 1000,**** (fold increase between >1.5 and ≤1.65),–
223 to 231 °C,"C[C@@H]1CN(c2ccc3cc(-c4cn5ccc(Cl)cc5n4)c(=O)oc3c2)C[C@H](C)N1 [Compound 123, 3-(7-chloroimidazo[1,2-a]pyridin-2-yl)-7-[(3R,5S)-3,5-dimethylpiperazin-1-yl]-2H-chromen-2-one]",1 to 3,300 to 1000,*** (fold increase between >1.35 and ≤1.5),–
179 to 184 °C,"Cc1cn2cc(-c3cc4ccc(N5CCCN(C)CC5)cc4oc3=O)nc2s1 [Compound 153, 7-(4-methyl-1,4-diazepan-1-yl)-3-(2-methylimidazo[2,1-b][1,3]thiazol-6-yl)-2H-chromen-2-one]",1 to 3,–,*** (fold increase between >1.35 and ≤1.5),–
198 to 207 °C,"COc1ccn2cc(-c3cc4ccc(N5CCCN(C)CC5)cc4oc3=O)nc2c1 [Compound 436, 3-(7-methoxyimidazo[1,2-a]pyridin-2-yl)-7-(4-methyl-1,4-diazepan-1-yl)-2H-chromen-2-one]",3 to 30,–,* (maximum fold increase of ≤1.2),–
101 to 103 °C,"COc1ccc(-c2cc3ccc(N4CCN[C@H](C)C4)cc3oc2=O)c(OC)c1 [Compound 466, 3-(2,4-dimethoxyphenyl)-7-[(3R)-3-methylpiperazin-1-yl]-2H-chromen-2-one]",3 to 30,–,* (maximum fold increase of ≤1.2),–

SMILES,melting point,"EC (1.5-fold) [1, 2] [µM]",EC1.5x (concentration giving 1.5-fold Smn protein increase) (Smn protein) [nM],maximum fold (Fold) increase of Smn protein (Smn protein),EC (1.5-fold) ([1]; 24 h) [µM]
"Cc1csc(-c2cc3ccc(N4CCNCC4)cc3oc2=O)c1 [Compound 318, 3-(4-methylthiophen-2-yl)-7-(piperazin-1-yl)-2H-chromen-2-one]",218 to 220 °C,–,–,* (maximum fold increase of ≤1.2),1 to 3
"Cc1csc(-c2cc3ccc(N4CCN[C@@H](C)C4)cc3oc2=O)n1 [Cpd 283, 7-[(3S)-3-methylpiperazin-1-yl]-3-(4-methyl-1,3-thiazol-2-yl)-2H-chromen-2-one]",194 to 199 °C,–,–,* (maximum fold increase of ≤1.2),0.3 to 1
"O=C(Oc1ccc2cc(-c3nc4c(Cl)cccc4s3)c(=O)oc2c1)N1CCNCC1 [Cpd 42, 3-(4-chloro-1,3-benzothiazol-2-yl)-2-oxo-2H-chromen-7-yl piperazine-1-carboxylate]",236 to 239 °C,–,–,* (maximum fold increase of ≤1.2),1 to 3
"O=c1oc2cc(N3CC4CCC(C3)N4)ccc2cc1-c1cn2cccc(Cl)c2n1 [Compound 526, 3-(8-chloroimidazo[1,2-a]pyridin-2-yl)-7-(3,8-diazabicyclo[3.2.1]oct-3-yl)-2H-chromen-2-one]",213 to 216 °C,–,–,*** (fold increase between >1.35 and ≤1.5),0.1 to 0.3
"O=c1oc2cc(N3CCNCC3)ccc2cc1Nc1ccccc1 [Compound 75, 3-(phenylamino)-7-(piperazin-1-yl)-2H-chromen-2-one]",140 to 143 °C,–,–,* (maximum fold increase of ≤1.2),3 to 30
